Assay results taken from PubChem BioAssay AID2060883 (Molecular Pharmacology Branch, DTP, NCI, 2025).
Where “and” joins values, the source holds several entries; their conditions need not be identical. Equal entries are not always repeated.

Tested on: 843782-103-R-J1-PDC complex spheroid viability
Assay: Anticancer human tumor 843782-103-R-J1-PDC patient-derived lung adenocarcinoma cell line growth inhibition [RAS]
Conditions: for viability, T/C: stronger effect = lower value; active means viability on the fitted dose curve at most 10% of control; inactive means the rest
How it was run: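 Multi-cell-type spheroids: tumor cells plus HUVEC endothelial cells and mesenchymal stem cells. RAS-pathway inhibitors were combined with targeted agents, each dosed in half-log steps down from clinical Cmax, or from 10 microM when Cmax was unknown.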
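Further: viability read after seven days of compound exposure.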

CC1(C)CCC(Nc2ncc(C(F)(F)F)c(-c3c[nH]c4c(P(C)(C)=O)c(C#N)ccc34)n2)CN1 (stereo not drawn)
inactive: viability, T/C (compound 0.000949 µM) 107% (2×) and 108% and 102% | viability, T/C (compound 0.003 µM) 93.6% [middle of 4 runs] | viability, T/C (compound 0.00949 µM) 58.3% [middle of 4 runs] | viability, T/C (compound 0.0949 µM) 22.4% [middle of 4 runs] | viability, T/C (compound 0.3 µM) 19.5% [middle of 4 runs]
13.6 nM [middle of 4 runs]: IC50 (curve of compound)

CC1(C)CCC(Nc2ncc(C(F)(F)F)c(-c3c[nH]c4c(P(C)(C)=O)c(C#N)ccc34)n2)CN1 (stereo not drawn) + CCn1c(-c2cccnc2C(C)OC)c2c3cc(ccc31)N1CCOC(CC(NC(=O)C(C(C)C)N(C)C(=O)C3(F)CCN(C(=O)C#CC(C)(C)N(C)C)CC3)C(=O)N3CCCC(N3)C(=O)OCC(C)(C)C2)C1
2.53 nM: IC50 (curve of first compound, second compound 0.000949 µM)
3.86 nM: IC50 (curve of first compound, second compound 0.03 µM)
2.63 nM: IC50 (curve of first compound, second compound 0.0949 µM)
inactive: viability, T/C (second compound 0.000949 µM, first compound 0.000949 µM) 78.2% | viability, T/C (second compound 0.000949 µM, first compound 0.003 µM) 45.2% | viability, T/C (second compound 0.000949 µM, first compound 0.00949 µM) 29.4% | viability, T/C (second compound 0.000949 µM, first compound 0.03 µM) 26.6% | viability, T/C (second compound 0.000949 µM, first compound 0.0949 µM) 22.9% | viability, T/C (second compound 0.000949 µM, first compound 0.3 µM) 21.8% | viability, T/C (second compound 0.003 µM, first compound 0.000949 µM) 59.9% | viability, T/C (second compound 0.003 µM, first compound 0.003 µM) 46.3% | viability, T/C (second compound 0.003 µM, first compound 0.00949 µM) 32.3% | viability, T/C (second compound 0.003 µM, first compound 0.03 µM) 21% | viability, T/C (second compound 0.003 µM, first compound 0.0949 µM) 17.9% | viability, T/C (second compound 0.003 µM, first compound 0.3 µM) 19.4% | viability, T/C (second compound 0.00949 µM, first compound 0.000949 µM) 59.6% | viability, T/C (second compound 0.00949 µM, first compound 0.003 µM) 51.8% | viability, T/C (second compound 0.00949 µM, first compound 0.00949 µM) 34% | viability, T/C (second compound 0.00949 µM, first compound 0.03 µM) 20.2% | viability, T/C (second compound 0.00949 µM, first compound 0.0949 µM) 19.5% | viability, T/C (second compound 0.00949 µM, first compound 0.3 µM) 19% | viability, T/C (second compound 0.03 µM, first compound 0.000949 µM) 62.9% | viability, T/C (second compound 0.03 µM, first compound 0.003 µM) 55.1% | viability, T/C (second compound 0.03 µM, first compound 0.00949 µM) 33% | viability, T/C (second compound 0.03 µM, first compound 0.03 µM) 22.6% | viability, T/C (second compound 0.03 µM, first compound 0.0949 µM) 18.8% | viability, T/C (second compound 0.03 µM, first compound 0.3 µM) 18% | viability, T/C (second compound 0.0949 µM, first compound 0.000949 µM) 69.3% | viability, T/C (second compound 0.0949 µM, first compound 0.003 µM) 46.8% | viability, T/C (second compound 0.0949 µM, first compound 0.00949 µM) 31.5% | viability, T/C (second compound 0.0949 µM, first compound 0.03 µM) 18.5% | viability, T/C (second compound 0.0949 µM, first compound 0.0949 µM) 17.3% | viability, T/C (second compound 0.0949 µM, first compound 0.3 µM) 17.6% | viability, T/C (second compound 0.3 µM, first compound 0.000949 µM) 57.7% | viability, T/C (second compound 0.3 µM, first compound 0.003 µM) 41.8% | viability, T/C (second compound 0.3 µM, first compound 0.00949 µM) 24.4% | viability, T/C (second compound 0.3 µM, first compound 0.03 µM) 15.5% | viability, T/C (second compound 0.3 µM, first compound 0.0949 µM) 13.6% | viability, T/C (second compound 0.3 µM, first compound 0.3 µM) 14.4%
3.46 nM: IC50 (curve of first compound, second compound 0.00949 µM)
2.29 nM: IC50 (curve of first compound, second compound 0.003 µM)
1.67 nM: IC50 (curve of first compound, second compound 0.3 µM)
